According to the supplement of paper PMC10307832:

What was measured:
Experiment in all cases: relative viability (nuclei count vs DMSO), 5 days (fraction); higher = more cells survive
[1] = compound: CCN(CCO)CCCC(C)Nc1ccnc2cc(Cl)ccc12 [Hydroxychloroquine] + COc1cccc2cc(-c3nc([C@H]4CC[C@H](C(=O)O)CC4)n4ncnc(N)c34)[nH]c12 [OSI-027] (partner 0.5 µM)
Procedure, shortened: (§1)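 Values are medians from duplicate plates. Each reflects relative viability, defined as the nuclei count of treated wells over that of vehicle wells. Lung cancer cell lines in 1536-well plates were pin-tool dosed one day after seeding with one drug alone or with a fixed anchor-drug dose plus five library-drug doses (not always all listed) in √10 steps, then fixed, stained and imaged at 4× after 5 days.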

[2] = compound: CCN(CCO)CCCC(C)Nc1ccnc2cc(Cl)ccc12 [Hydroxychloroquine] + CS(=O)(=O)CCNCc1ccc(-c2ccc3ncnc(Nc4ccc(OCc5cccc(F)c5)c(Cl)c4)c3c2)o1 [Lapatinib] (partner 2 µM)
Procedure, shortened: as §1

[3] = compound: CCN(CCO)CCCC(C)Nc1ccnc2cc(Cl)ccc12 [Hydroxychloroquine] + CCNC(=O)c1noc(-c2cc(C(C)C)c(O)cc2O)c1-c1ccc(CN2CCOCC2)cc1 [Luminespib] (partner 0.01 µM)
Procedure, shortened: as §1

[4] = compound: CCN(CCO)CCCC(C)Nc1ccnc2cc(Cl)ccc12 [Hydroxychloroquine] + C[C@]1(O)C[C@@H](c2nc(-c3ccc4ccc(-c5ccccc5)nc4c3)c3c(N)nccn32)C1 [Linsitinib] (partner 1 µM)
Procedure, shortened: as §1

| Cell Line | relative viability ([1]; first compound 0.5 µM) | relative viability ([1]; first compound 1.581 µM) | relative viability ([1]; first compound 5 µM) | relative viability ([1]; first compound 15.81 µM) | relative viability ([1]; first compound 50 µM) | relative viability ([2]; first compound 0.5 µM) | relative viability ([2]; first compound 1.581 µM) | relative viability ([2]; first compound 5 µM) | relative viability ([2]; first compound 15.81 µM) | relative viability ([2]; first compound 50 µM) | relative viability ([3]; first compound 0.5 µM) | relative viability ([3]; first compound 1.581 µM) | relative viability ([3]; first compound 5 µM) | relative viability ([3]; first compound 15.81 µM) | relative viability ([3]; first compound 50 µM) | relative viability ([4]; first compound 0.5 µM) | relative viability ([4]; first compound 1.581 µM) | relative viability ([4]; first compound 5 µM) | relative viability ([4]; first compound 15.81 µM) | relative viability ([4]; first compound 50 µM) |
| --- | --- | --- | --- | --- | --- | --- | --- | --- | --- | --- | --- | --- | --- | --- | --- | --- | --- | --- | --- | --- |
| HCC-15 | 0.754 | 0.672 | 0.634 | 0.656 | 0.724 | 0.847 | 0.812 | 0.873 | 0.867 | 0.836 | 0.433 | 0.39 | 0.25 | 0.252 | 0.503 | 0.815 | 0.861 | 0.879 | 0.912 | 0.898 |
| NCI-H650 | 0.566 | 0.557 | 0.61 | 0.555 | 0.545 | 0.894 | 0.862 | – | 0.892 | 1.09 | 0.884 | 0.818 | 0.78 | 0.881 | 0.795 | 0.907 | 0.802 | – | 0.828 | 0.818 |
| UMC-11 | – | 0.402 | 0.486 | 0.403 | 0.538 | 0.829 | 0.735 | 0.982 | 1.1 | 1.13 | – | 1.01 | 1.05 | 1.1 | 1.04 | 0.928 | 1.02 | 0.986 | 1.1 | 1.22 |
| NCI-H1651 | 0.659 | 0.69 | 0.677 | 0.786 | 0.781 | 0.811 | 0.925 | 0.729 | 0.979 | 0.988 | 0.843 | 0.817 | 0.89 | 0.739 | 0.963 | 0.909 | 1.1 | 0.975 | 1.14 | 0.963 |
| NCI-H1792 | 0.797 | 0.729 | 0.715 | 1.04 | 0.825 | 0.889 | 0.923 | 0.831 | 0.793 | 0.93 | 0.434 | 0.503 | 0.472 | 0.698 | 0.442 | 0.534 | 0.588 | 0.583 | 0.536 | 0.56 |
| NCI-H2023 | 0.468 | 0.336 | 0.402 | 0.338 | 0.442 | 0.793 | 0.652 | 0.691 | 0.905 | 0.994 | 0.75 | 0.657 | 0.784 | 0.899 | 0.642 | 0.618 | 0.65 | 0.697 | 0.643 | 0.728 |
| COR-L 105 | 0.643 | 0.598 | 0.708 | 0.739 | 0.668 | 0.369 | 0.37 | 0.346 | 0.318 | 0.327 | 0.883 | 0.718 | 0.579 | 0.709 | 0.882 | 1.08 | 1 | 0.905 | 0.851 | 0.814 |
| NCI-H1734 | 0.555 | 0.526 | 0.581 | 0.606 | 0.677 | 1.13 | 0.99 | 0.992 | 1.05 | 0.99 | 0.179 | 0.197 | 0.199 | 0.169 | 0.183 | 0.817 | 0.748 | 0.914 | 0.894 | 0.903 |
| NCI-H3122 | 1.05 | 0.962 | 1.12 | 1.2 | 1.18 | 1.02 | 1.01 | 1.05 | 1 | 1.07 | 0.11 | 0.0839 | 0.104 | 0.109 | 0.0905 | 1.05 | 1 | 0.953 | 1.05 | 1.07 |
| CAL-12T | 0.97 | 0.8 | 0.633 | 0.684 | 0.687 | 0.752 | – | 0.659 | 0.633 | 0.691 | 0.286 | 0.319 | 0.363 | 0.511 | 0.373 | 0.916 | 0.75 | 0.773 | 0.866 | 0.886 |
| NCI-H2085 | 0.788 | 0.557 | 0.625 | 0.693 | 0.821 | 0.83 | 0.666 | 0.832 | 0.742 | 0.873 | 0.612 | 0.44 | 0.447 | 0.416 | 0.413 | 0.891 | 0.788 | 0.938 | 0.941 | 0.883 |
